Laboratory results taken from patent publication US20090312349A1, “ANTI-INFLAMMATORY MEDICAMENTS” (priority 2004, published 2009).
Each block holds one compound with its values, some of them ahead of it.

Legend:
[1] = system: TNF-alpha release from human peripheral blood mononuclear leukocytes; assay: Human peripheral blood mononuclear leukocyte cell assay (LPS-induced TNF-alpha release, ELISA); type: cell-based; details: 25 ng/mL LPS, 16 hours, read-out: IC50, uM (inhibition of TNF-alpha release)
Protocol: The quantity of LPS-induced tumor necrosis factor-alpha (TNF-alpha) cytokine release is measured by a commercially available Enzyme-Linked Immunosorbent Assay (ELISA) kit. Test compounds are evaluated for their ability to inhibit TNF-alpha release.

[2] = biological target: T1, phospho p-38 alpha kinase (Homo sapiens, UniProt Q16539); assay: P-38 alpha kinase assay (spectrophotometric, pyruvate kinase/lactate dehydrogenase coupled); type: biochemical; details: Table 5; for IC50: assay not named, read-out: uM
T1 construct: purchased Panvera
T1 sequence (Q16539 whole entry): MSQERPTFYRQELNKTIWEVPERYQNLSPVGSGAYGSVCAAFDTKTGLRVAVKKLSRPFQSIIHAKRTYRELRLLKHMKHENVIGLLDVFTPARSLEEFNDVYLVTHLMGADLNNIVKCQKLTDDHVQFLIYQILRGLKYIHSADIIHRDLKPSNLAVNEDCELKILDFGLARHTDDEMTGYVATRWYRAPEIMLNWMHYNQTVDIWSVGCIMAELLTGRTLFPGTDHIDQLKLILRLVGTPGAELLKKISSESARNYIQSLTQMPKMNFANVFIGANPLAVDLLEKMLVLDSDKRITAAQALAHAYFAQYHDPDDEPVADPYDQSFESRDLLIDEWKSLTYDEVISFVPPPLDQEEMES

[3] = biological target: phosphorylated p-38-alpha kinase (Homo sapiens, UniProt Q16539); assay: P-38 alpha kinase assay P1; type: biochemical; details: Method P1; for IC50: 2 h pre-incubation before ATP
phosphorylated p-38-alpha kinase, sequence (Q16539 1-360 isoform Q16539-2): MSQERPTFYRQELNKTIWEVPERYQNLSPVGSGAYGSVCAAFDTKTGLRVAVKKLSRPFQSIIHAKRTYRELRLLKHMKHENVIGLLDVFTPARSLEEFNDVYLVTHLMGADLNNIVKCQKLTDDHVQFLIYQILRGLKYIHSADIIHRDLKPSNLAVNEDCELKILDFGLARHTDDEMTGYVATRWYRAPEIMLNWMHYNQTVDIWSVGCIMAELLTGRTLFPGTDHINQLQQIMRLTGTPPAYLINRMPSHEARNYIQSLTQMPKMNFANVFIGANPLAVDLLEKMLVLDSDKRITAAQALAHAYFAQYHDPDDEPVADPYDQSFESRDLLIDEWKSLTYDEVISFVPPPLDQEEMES

B-Raf(V599E) kinase [4] = biological target: T2, B-Raf(V599E) kinase (Homo sapiens, UniProt P15056, V600E); assay: biochemical; details: for IC50: Method B2, construct 2; for inhibition at 10 µM / inhibition at 1 µM: read-out: Results, % @ concentration μM
Protocol: (§1) The test compounds were incubated with the reaction mixture at 30° C. for 2 h. […] The reaction rate was calculated using the 1.5 h to 2.5 h time frame. […] IC50 values were calculated from a series of percent inhibition values determined at a range of inhibitor concentrations using software routines as implemented in the GraphPad Prism software package.
Same as assay B1 except that (1) construct 2 was employed at a nominal concentration of 2 nM (2) the reaction was pre-incubated at 30° C. for 1 h prior to initiation with ATP (3) a reading time frame of 0.5 h to 1.5 h.
Target sequence in this assay (P15056 433-726 V600E): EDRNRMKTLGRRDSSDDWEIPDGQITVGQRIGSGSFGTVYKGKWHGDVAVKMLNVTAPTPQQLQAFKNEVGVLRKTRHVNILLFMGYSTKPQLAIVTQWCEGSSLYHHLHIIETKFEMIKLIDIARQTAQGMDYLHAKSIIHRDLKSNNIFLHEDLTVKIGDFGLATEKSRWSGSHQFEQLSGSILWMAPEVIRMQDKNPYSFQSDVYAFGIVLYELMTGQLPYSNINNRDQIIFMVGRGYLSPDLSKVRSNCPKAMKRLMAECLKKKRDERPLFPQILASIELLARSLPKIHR

B-Raf(V599E) kinase [5] = biological target: T2, B-Raf(V599E) kinase; assay: B-Raf(V599E) kinase assay B1; type: biochemical; details: Method B1; construct 1
Protocol: as §1
Target sequence in this assay (P15056 with tags, fused parts or gaps V600E): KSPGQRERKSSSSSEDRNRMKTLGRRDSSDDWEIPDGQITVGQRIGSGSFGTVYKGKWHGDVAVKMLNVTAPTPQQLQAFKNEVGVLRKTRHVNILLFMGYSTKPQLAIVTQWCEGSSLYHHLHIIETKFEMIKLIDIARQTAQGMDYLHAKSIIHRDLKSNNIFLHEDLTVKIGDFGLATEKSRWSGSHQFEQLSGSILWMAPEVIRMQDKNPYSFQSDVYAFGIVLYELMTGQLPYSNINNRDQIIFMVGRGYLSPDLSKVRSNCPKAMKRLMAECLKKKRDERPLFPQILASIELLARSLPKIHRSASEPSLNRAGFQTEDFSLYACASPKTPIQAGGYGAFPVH

Abl kinase [6] = biological target: T3, Abl kinase (Homo sapiens, UniProt P00519); assay: Abl kinase assay A2; type: biochemical; details: Method A2; 2 h pre-incubation, 0.5 mM ATP
T3 sequence (P00519 229-512): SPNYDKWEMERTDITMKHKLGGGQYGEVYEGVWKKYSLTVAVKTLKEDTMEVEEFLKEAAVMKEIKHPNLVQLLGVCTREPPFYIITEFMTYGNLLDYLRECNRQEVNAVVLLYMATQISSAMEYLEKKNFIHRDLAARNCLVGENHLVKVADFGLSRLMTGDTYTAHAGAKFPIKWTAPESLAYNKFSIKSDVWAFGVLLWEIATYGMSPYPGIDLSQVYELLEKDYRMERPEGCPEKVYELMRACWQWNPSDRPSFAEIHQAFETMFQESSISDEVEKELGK
Protocol: (§2) IC50 values were calculated from a series of percent inhibition values determined at a range of inhibitor concentrations using software routines as implemented in the GraphPad Prism software package.

KDR kinase [7] = biological target: T4, KDR kinase (Homo sapiens, UniProt P35968, DEL940-989/E990V); assay: KDR kinase assay K2
T4 sequence (P35968 with tags, fused parts or gaps DEL940-989/E990V): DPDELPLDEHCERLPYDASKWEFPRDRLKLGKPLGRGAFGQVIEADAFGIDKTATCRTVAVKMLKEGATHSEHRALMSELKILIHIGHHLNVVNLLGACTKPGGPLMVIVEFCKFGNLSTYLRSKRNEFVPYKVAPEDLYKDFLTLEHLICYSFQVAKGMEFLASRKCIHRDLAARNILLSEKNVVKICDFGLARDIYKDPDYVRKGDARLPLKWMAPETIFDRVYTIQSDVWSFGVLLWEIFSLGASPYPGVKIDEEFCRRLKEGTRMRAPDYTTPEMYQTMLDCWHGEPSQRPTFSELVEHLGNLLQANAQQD

p38 MAP kinase = p38 MAP kinase (Homo sapiens, UniProt Q16539); assay: P38 MAP kinase binding assay (fluorescence competition with SKF 86002); details: time-dependent if the IC50 values decrease with the reaction time (more than two-fold in four hours)
p38 MAP kinase, sequence (Q16539 whole entry): as the sequence (Q16539 whole entry) above
Protocol: The reaction was initiated by addition of the enzyme. […] By comparison of rfu (relative fluorescence unit) values with that of a control (in the absence of an inhibitor), the percentage of inhibition at each concentration of the inhibitor was calculated. IC50 value for the inhibitor was calculated from the % inhibition values obtained at a range of concentrations of the inhibitor using Prism. When time-dependent inhibition was assessed, the plate was read at multiple reaction times such as 0.5, 1, 2, 3, 4 and 6 hours. The IC50 values were calculated at the each time point. An inhibition was assigned as time-dependent if the IC50 values decrease with the reaction time (more than two-fold in four hours).

KDR kinase [8] = biological target: T4, KDR kinase; assay: KDR kinase assay K1; type: biochemical; details: read-out: Results, % @ concentration μM, Method K1; @ 10 μM
Protocol: as §2

Abl kinase [9] = biological target: T3, Abl kinase; assay: Abl kinase assay A1; type: biochemical; details: read-out: Results, % @ concentration μM, Method A1; @ 1 μM
Protocol: as §2

Compound: O=C(O)Cc1cccc(-n2nc(-c3ccsc3)cc2NC(=O)Nc2cccc(Cl)c2Cl)c1 [Example 436, 2-(3-(5-(3-(2,3-dichlorophenyl)ureido)-3-(thiophen-3-yl)-1H-pyrazol-1-yl)phenyl)acetic acid]
% @ concentration, uM ([2]; @ 0.1 uM): 16% | % @ concentration, uM ([2]; @ 1 uM): 41% | IC50 [3]: 0.007 µM | IC50 (B-Raf(V599E) kinase [4]): 3.7 µM

Compound: O=C(Cc1ccc(-n2nc(-c3ccccc3F)cc2NC(=O)Nc2cccc(Cl)c2Cl)cc1)NC(CO)CO [Example 473, 1-(2,3-dichlorophenyl)-3-(1-(4-(2-(1,3-dihydroxypropan-2-ylamino)-2-oxoethyl)phenyl)-3-(2-fluorophenyl)-1H-pyrazol-5-yl)urea]
IC50 [2]: 0.004 µM | IC50 [3]: 0.03 µM | inhibition at 10 µM (B-Raf(V599E) kinase [4]): 4%

Compound: CC1(C(=O)O)CC2(C)CC(C)(C1)C(=O)N(Cc1cccc(-n3nc(C(C)(C)C)cc3NC(=O)Nc3cccc4ccccc34)c1)C2=O (stereo not drawn) [Example 11]
Time-dependent (p38 MAP kinase): No

Compound: CC1(C(=O)O)CC2(C)CC(C)(C1)C(=O)N(Cc1cccc(-n3nc(C(C)(C)C)cc3NC(=O)Nc3ccc(Cl)cc3)c1)C2=O (stereo not drawn) [Example 12]
Time-dependent (p38 MAP kinase): No

Compound: O=C(Cc1cccc(-n2nc(-c3ccccc3F)cc2NC(=O)Nc2cccc(Cl)c2Cl)c1)NCC(O)CO (stereo not drawn) [Example 459, 1-(2,3-dichlorophenyl)-3-(1-(3-(2-(2,3-dihydroxypropylamino)-2-oxoethyl)phenyl)-3-(2-fluorophenyl)-1H-pyrazol-5-yl)urea]
IC50 [2]: 0.02 µM | IC50 [3]: 0.005 µM | inhibition at 10 µM (KDR kinase [8]): 33% | inhibition at 10 µM (B-Raf(V599E) kinase [4]): 5%

Compound: Cc1ccc(NC(=O)Nc2cc(C(C)(C)C)nn2-c2cccc(CC(N)=O)c2)cc1Nc1ncccn1 [Example 515, 1-(1-(3-(2-amino-2-oxoethyl)phenyl)-3-tert-butyl-1H-pyrazol-5-yl)-3-(4-methyl-3-(pyrimidin-2-ylamino)phenyl)urea]
Results, % @ concentration μM ([3]; @ 1.0 μM): 90% @1.0 | inhibition at 1 µM (B-Raf(V599E) kinase [4]): 27%

Compound: CN(C)CCc1cccc(-n2nc(C(C)(C)C)cc2NC(=O)Nc2ccc3c(c2)OCO3)c1 [Example 300, 1-(benzo[d][1,3]dioxol-5-yl)-3-{3-t-butyl 1-(3-[2-(dimethylamino)ethyl]phenyl}-1H-pyrazol-5-yl)urea]
IC50 [1]: 4.78 µM

Compound: O=C(Cc1cccc(-n2nc(C3CCCC3)cc2NC(=O)Nc2cccc(Cl)c2Cl)c1)NCCO [Example 488, 1-(3-cyclopentyl-1-(3-(2-(2-hydroxyethylamino)-2-oxoethyl)phenyl)-1H-pyrazol-5-yl)-3-(2,3-dichlorophenyl)urea]
IC50 [2]: 0.54 µM | IC50 [3]: 0.007 µM | inhibition at 1 µM (B-Raf(V599E) kinase [4]): 21% | inhibition at 1 µM (KDR kinase [7]; read-out: Results, % @ concentration μM): 41%

Compound: O=C(Cc1ccc(-n2nc(-c3ccccc3F)cc2NC(=O)Nc2cccc(Cl)c2Cl)cc1)NCC(O)CO (stereo not drawn) [Example 471, 1-(2,3-dichlorophenyl)-3-(1-(4-(2-(2,3-dihydroxypropylamino)-2-oxoethyl)phenyl)-3-(2-fluorophenyl)-1H-pyrazol-5-yl)urea]
IC50 [3]: 0.016 µM | inhibition at 10 µM (B-Raf(V599E) kinase [4]): 39% | inhibition at 1 µM (Abl kinase [9]): 14%

Compound: CC(C)(C)c1cc(NC(=O)Nc2cccc(Oc3cccnc3)c2)n(-c2cccc(CC(N)=O)c2)n1 [Example 500, 1-(1-(3-(2-amino-2-oxoethyl)phenyl)-3-tert-butyl-1H-pyrazol-5-yl)-3-(3-(pyridin-3-yloxy)phenyl)urea]
IC50 [3]: 0.017 µM | IC50 (B-Raf(V599E) kinase [5]): 0.01 µM | IC50 (Abl kinase [6]): 0.021 µM | IC50 (KDR kinase [7]): 9 nM

The next lines start with the values.

IC50 [1]: 3.49 µM
Compound: CCOC(=O)Cc1cccc(-n2nc(C(C)(C)C)cc2NC(=O)Nc2ccc3c(c2)OCO3)c1 [Example 296, ethyl 2-(3-{5-[3-(benzo[d][1,3]dioxol-5-yl)ureido]-3-t-butyl-1H-pyrazol-1-yl}phenyl)-acetate]

IC50 [2]: 0.024 µM | IC50 (B-Raf(V599E) kinase [5]): 1.7 µM | IC50 (Abl kinase [6]): 0.25 µM | IC50 (KDR kinase [7]): 14 nM
Compound: C=C1NS(=O)(=O)N(Cc2cccc(-n3nc(C(C)(C)C)cc3NC(=O)Nc3cccc(Cl)c3Cl)c2)C1=O [Example 511, 1-{5-t-butyl-2-[3-(4-methylene-1,1,3-trioxo-[1,2,5]thiadiazolidin-2-ylmethyl)-phenyl]-2H-pyrazol-3-yl}-3-(2,3-dichlorophenyl)-urea]

Time-dependent (p38 MAP kinase): No
Compound: CC(C)(C)c1cc(NC(=O)Nc2cccc3ccccc23)n(-c2ccc(CN)cc2)n1 [Example 45, 1-{3-t-butyl-1-[4-(aminomethyl)phenyl]-1H-pyrazol-5-yl}-3-(naphthalen-1-yl)urea]

IC50 (B-Raf(V599E) kinase [4]): 0.075 µM | IC50 (Abl kinase [6]): 0.0022 µM
Compound: Cc1ccc(NC(=O)Nc2cc(C(C)(C)C)nn2-c2cccc(CC(=O)NCC(O)CO)c2)cc1Nc1nccc(-c2cccnc2)n1 (stereo not drawn) [Example 517, 1-(3-tert-butyl-1-(3-(2-(2,3-dihydroxypropylamino)-2-oxoethyl)phenyl)-1H-pyrazol-5-yl)-3-(4-methyl-3-(4-(pyridin-3-yl)pyrimidin-2-ylamino)phenyl)urea]

Time-dependent (p38 MAP kinase): Yes
Compound: CC(C)(C)c1cc(NC(=O)Nc2cccc3ccccc23)n(-c2cccc(CC(=O)N3CCOCC3)c2)n1 [Example 21, 1-{3-t-butyl-1-[3-(2-morpholino-2-oxoethyl)phenyl]-1H-pyrazol-5-yl}-3-(naphthalene-1-yl)urea]
